Patent US20230106032A1, “IMIDAZOTRIAZINES ACTING ON CANCER VIA INHIBITION OF CDK12” (Bayer Aktiengesellschaft, priority 2020, published 2023)

Assays:
CDK2/CycE = molecular target: T1, CDK2/CycE (Homo sapiens, UniProt P24941); assay: CDK2/CycE kinase assay (TR-FRET, 2 mM ATP); assay type: biochemical; settings: read-out: CDK2/CyclinE, 2 mM ATP (high ATP) IC50-[mol/l] (median)
T1 construct: purchased ProQinase GmbH (Freiburg, Germany); host or cells: insect cells (Sf9)
Text: CDK2/CycE-inhibitory activity of compounds of the present invention was quantified employing the CDK2/CycE TR-FRET assay as described in the following paragraphs.
Recombinant fusion proteins of GST and human CDK2 and of GST and human CycE, expressed in insect cells (Sf9) and purified by Glutathion-Sepharose affinity chromatography, were purchase from ProQinase GmbH (Freiburg, Germany). As substrate for the kinase reaction biotinylated peptide biotin-Ttds-YISPLKSPYKISEG (C-terminus in amid form) was used which can be purchased e.g. form the company JERINI peptide technologies (Berlin, Germany).
For the assay 50 nanoL of a 100 fold concentrated solution of the test compound in DMSO was pipetted into a black low volume 384 well microtiter plate or a black 1536 well microtiter plate (both Greiner Bio-One, Frickenhausen, Germany), 2 microL of a solution of CDK2/CycE in aqueous assay buffer [50 millimol/L Tris/HCl pH 8.0, 10 millimol/L MgCl2, 1.0 millimol/L dithiothreitol, 0.1 millimol/L sodium ortho-vanadate, 0.01% (v/v) Nonidet-P40 (Sigma)] were added and the mixture was incubated for 15 min at 22° C. to allow pre-binding of the test compounds to the enzyme before the start of the kinase reaction. Then the kinase reaction was started by the addition of 3 microL of a solution of adenosine-tri-phosphate (ATP, 3.33 millimol/L=> final conc. in the 5 microL assay volume is 2 millimol/L) and substrate (1.25 micromol/L=> final conc. in the 5 microL assay volume is 0.75 micromol/L) in assay buffer and the resulting mixture was incubated for a reaction time of 25 min at 22° C. The concentration of CDK2/CycE was adjusted depending of the activity of the enzyme lot and was chosen appropriate to have the assay in the linear range, typical concentrations were in the range of 10 ng/ml. The reaction was stopped by the addition of 3 microL of a solution of TR-FRET detection reagents (0.333 micromol/L streptavidine-XL665 [Cisbio Bioassays, Codolet, France] and 1.67 nanomol/L anti-RB(pSer807/pSer8l 1)-antibody from BD Pharmingen [#558389] and 2 nanomol/L LANCE EU-W1024 labeled anti-mouse IgG antibody [Perkin-Elmer, product no. AD0077, as an alternative a Terbium-cryptate-labeled anti-mouse IgG antibody from Cisbio Bioassays can be used]) in an aqueous EDTA-solution (167 millimol/L EDTA, 0.2% (w/v) bovine serum albumin in 100 millimol/L HEPES pH 7.5).
The resulting mixture was incubated 1 h at 22° C. to allow the formation of complex between the phosphorylated biotinylated peptide and the detection reagents. Subsequently the amount of phosphorylated substrate was evaluated by measurement of the resonance energy transfer from the Eu-chelate to the streptavidine-XL. Therefore, the fluorescence emissions at 620 nm and 665 nm after excitation at 350 nm was measured in a TR-FRET reader, e.g. a Pherastar (BMG Labtechnologies, Offenburg, Germany) or a Viewlux (Perkin-Elmer). The ratio of the emissions at 665 nm and at […] was taken as the measure for the amount of phosphorylated substrate. The data were normalised (enzyme reaction without inhibitor=0% inhibition, all other assay components but no enzyme=100% inhibition).

[1] = system: MDA-MB-231 human breast cancer cells; assay: Proliferation assay MDA-MB-231 (crystal violet); assay type: cell-based; settings: 96 h, MDA-MB-231 cells, 4 days, read-out: Prolif-MDA MB231 IC50-[mol/l] (median)
Description: (§1) Human tumour cells were originally obtained from the American Type Culture Collection (ATCC), or from the Deutsche Sammlung von Mikroorganismen und Zellkulturen (DSMZ, German Collection of Microorganisms and Cell Cultures). Cultivated tumour cells (CAL-120, human breast adenocarcinoma cells, DSMZ ACC-459; MDA-MB-231, human breast cancer cells, ATCC HTB-26) were plated at a density of 4,000 cells/well in a 96-well multititer plate in 200 microL of their respective growth medium supplemented 10% fetal calf serum. After 24 hours, the cells of one plate (zero-point plate) were stained with crystal violet (see below), while the medium of the other plates was supplemented with the test substances in various concentrations (0 micromol/L, as well as in the range of 0.01-10 micromol/L; the final concentration of the solvent dimethyl sulfoxide was adjusted to 0.1%) using a Tecan HP D300 Digital Dispenser. The cells were incubated for 4 days in the presence of test substances. Cell proliferation was determined by staining the cells with crystal violet: the cells were fixed by adding 20 microL/measuring point of an 11% glutaric aldehyde solution for 15 minutes at room temperature. After three washing cycles of the fixed cells with water, the plates were dried at room temperature. The cells were stained by adding 100 microL/measuring point of a 0.1% crystal violet solution (pH 3.0). After three washing cycles of the stained cells with water, the plates were dried at room temperature. The dye was dissolved by adding 100 microL/measuring point of a 10% acetic acid solution. The extinction was determined by photometry at a wavelength of 595 nm. The change of cell number, in percent, was calculated by normalization of the measured values to the extinction values of the zero-point plate (=0%) and the extinction of the untreated (0 μM) cells (=100%). The IC50 values (inhibitory concentration at 50% of maximal effect) were determined by means of a 4 parameter fit.

[2] = system: CAL-120 human breast adenocarcinoma cells; assay: Proliferation assay CAL-120 (crystal violet); assay type: cell-based; settings: 96 h, CAL-120 cells, 4 days, read-out: Prolif-CAL-120_ IC50-[mol/l] (median)
Description: as §1

CYCLIN K = CYCLIN K nuclear protein level: immunofluorescence/high content analysis in CAL-120 cells; assay type: cell-based, human; settings: 24 h, nuclear CCNK staining, read-out: CYCLIN K degradation IF, DC50-[mol/l] (median)
Description: In the context of the present invention, the term “DC50 Cyclin K” refers to the DC50 values obtained according to the assay described in this section (7) herein below, i.e. the DC50 values for the degradation of Cyclin K.
CAL-120 human breast cancer cells (DSMZ ACC 459) are seeded in 1536-well microtiter plates (800 cells per well) containing 50 nanoL of compounds in Dose-Response. Control wells received DMSO or Reference Example 1. Plates are then incubated for 24 h at 37° C. in an humidified incubator and fixed with 4% PFA for 10 min. Then immunofluorescence (IF) against CYCLIN K (ThermoFisher Scientific CCNK Antibody #PA5-85020, rabbit, 1:200 dilution) is performed using standard IF protocols. Cells are then stained with Hoechst 33342 (Life Technologies, H-1399, 0.1 microg/ml) and imaged on an automated confocal microscopy system (e.g. Perkin Elmer Opera Phenix). Nuclear and cytoplasmic intensity as well as the nuclear/cytoplasmic intensity ratio is determined by automated image analysis using custom generated scripts (MetaXpress). Data is then transferred to Genedata Screener software, normalized to DMSO and control and DC50 values (degrading concentration to achieve 50% reduction of nuclear CCNK staining intensity relative to controls) are reported.

C[C@@H]1CN(c2nc(NCc3nc4c(F)cccc4[nH]3)c3ncc(Br)n3n2)C[C@H](C)N1 [Example 18, 7-bromo-2-[rel-(3R,5S)-3,5-dimethylpiperazin-1-yl]-N-[(4-fluoro-1H-benzimidazol-2-yl)methyl]imidazo[2,1-f][1,2,4]triazin-4-amine]
IC50 (CDK2/CycE): > 20000 nM | IC50 [1]: 3.45 nM | IC50 [2]: 2.08 nM | DC50 (CYCLIN K): 0.505 nM

CN1CCN(c2nc(NCc3nc4ccccc4[nH]3)c3ncc(C(F)(F)F)n3n2)CC1 [Example 25, N-[(1H-benzimidazol-2-yl)methyl]-2-(4-methylpiperazin-1-yl)-7-(trifluoromethyl)imidazo[2,1-f][1,2,4]triazin-4-amine]
IC50 (CDK2/CycE): > 20000 nM | IC50 [1]: 13.2 nM | IC50 [2]: 12.3 nM | DC50 (CYCLIN K): 1.66 nM

COc1cccc2[nH]c(CNc3nc(N4C[C@@H](C)N[C@@H](C)C4)nn4c(Br)cnc34)nc12 [Example 14, 7-bromo-2-[rel-(3R,5S)-3,5-dimethylpiperazin-1-yl]-N-[(4-methoxy-1H-benzimidazol-2-yl)methyl]imidazo[2,1-f][1,2,4]triazin-4-amine]
IC50 (CDK2/CycE): > 20000 nM | IC50 [1]: 3.91 nM | IC50 [2]: 2.33 nM | DC50 (CYCLIN K): 0.225 nM

Fc1ccc2[nH]c(CNc3nc(N4CCOCC4)nn4c(C(F)(F)F)cnc34)nc2c1F [Example 27, N-[(4,5-difluoro-1H-benzimidazol-2-yl)methyl]-2-(morpholin-4-yl)-7-(trifluoromethyl)imidazo[2,1-f][1,2,4]triazin-4-amine]
IC50 (CDK2/CycE): > 20000 nM | IC50 [1]: 1.91 nM | IC50 [2]: 2.01 nM | DC50 (CYCLIN K): 3.45 nM

C[C@@H]1CN(c2nc(NCc3nc4c(F)c(F)ccc4[nH]3)c3ncc(C(F)(F)F)n3n2)C[C@H](C)N1 [Example 29, N-[(4,5-difluoro-1H-benzimidazol-2-yl)methyl]-2-[rel-(3R,5S)-3,5-dimethylpiperazin-1-yl]-7-(trifluoromethyl)imidazo[2,1-f][1,2,4]triazin-4-amine]
IC50 (CDK2/CycE): > 20000 nM | IC50 [1]: 0.839 nM | IC50 [2]: 0.536 nM | DC50 (CYCLIN K): 0.267 nM

CN1CCN(c2nc(NCc3nc4ccccc4[nH]3)c3ncc(Br)n3n2)CC1 [Example 6, N-[(1H-benzimidazol-2-yl)methyl]-7-bromo-2-(4-methylpiperazin-1-yl)imidazo[2,1-f][1,2,4]triazin-4-amine]
IC50 (CDK2/CycE): > 20000 nM | IC50 [1]: 71 nM | IC50 [2]: 61.4 nM | DC50 (CYCLIN K): 2.31 nM

CN1CCN(c2nc(NCc3nc4cc(F)ccc4[nH]3)c3ncc(Br)n3n2)CC1 [Example 21, 7-bromo-N-[(5-fluoro-1H-benzimidazol-2-yl)methyl]-2-(4-methylpiperazin-1-yl)imidazo[2,1-f][1,2,4]triazin-4-amine]
IC50 (CDK2/CycE): > 20000 nM | IC50 [1]: 19.7 nM | IC50 [2]: 4.82 nM | DC50 (CYCLIN K): 0.227 nM

Brc1cnc2c(NCc3nc4ccccc4[nH]3)nc(N3CCNCC3)nn12 [Example 8, N-[(1H-benzimidazol-2-yl)methyl]-7-bromo-2-(piperazin-1-yl)imidazo[2,1-f][1,2,4]triazin-4-amine]
IC50 (CDK2/CycE): > 20000 nM | IC50 [1]: 14.5 nM | IC50 [2]: 3.25 nM | DC50 (CYCLIN K): 1.28 nM

C[C@@H]1CN(c2nc(NCc3nc4ccccc4[nH]3)c3ncc(Br)n3n2)C[C@H](C)O1 [Example 4, N-[(1H-benzimidazol-2-yl)methyl]-7-bromo-2-[rel-(2R,6S)-2,6-dimethylmorpholin-4-yl]imidazo[2,1-f][1,2,4]triazin-4-amine]
IC50 (CDK2/CycE): > 20000 nM | IC50 [1]: 59.2 nM | IC50 [2]: 53.8 nM | DC50 (CYCLIN K): 1.14 nM

CN1CCN(c2nc(NCc3nc4c(F)cccc4[nH]3)c3ncc(Br)n3n2)CC1 [Example 23, 7-bromo-N-[(4-fluoro-1H-benzimidazol-2-yl)methyl]-2-(4-methylpiperazin-1-yl)imidazo[2,1-f][1,2,4]triazin-4-amine]
IC50 (CDK2/CycE): > 20000 nM | IC50 [1]: 34.3 nM | IC50 [2]: 14.2 nM | DC50 (CYCLIN K): 0.863 nM

FC(F)(F)c1cnc2c(NCc3nc4ccccc4[nH]3)nc(N3CCOCC3)nn12 [Example 26, N-[(1H-benzimidazol-2-yl)methyl]-2-(morpholin-4-yl)-7-(trifluoromethyl)imidazo[2,1-f][1,2,4]triazin-4-amine]
IC50 (CDK2/CycE): > 19400 nM | IC50 [1]: 7.21 nM | IC50 [2]: 7.11 nM | DC50 (CYCLIN K): 0.552 nM

C[C@@H]1CN(c2nc(NCc3nc4c(F)c(F)ccc4[nH]3)c3ncc(Br)n3n2)C[C@H](C)N1 [Example 11, 7-bromo-N-[(4,5-difluoro-1H-benzimidazol-2-yl)methyl]-2-[rel-(3R,5S)-3,5-dimethylpiperazin-1-yl]imidazo[2,1-f][1,2,4]triazin-4-amine]
IC50 (CDK2/CycE): > 20000 nM | IC50 [1]: 0.948 nM | IC50 [2]: 0.381 nM | DC50 (CYCLIN K): 0.0525 nM

Fc1ccc2[nH]c(CNc3nc(N4CCOCC4)nn4c(Br)cnc34)nc2c1F [Example 7, 7-bromo-N-[(4,5-difluoro-1H-benzimidazol-2-yl)methyl]-2-(morpholin-4-yl)imidazo[2,1-f][1,2,4]triazin-4-amine]
IC50 (CDK2/CycE): > 20000 nM | IC50 [1]: 7.93 nM | IC50 [2]: 8.44 nM | DC50 (CYCLIN K): 0.201 nM

COc1cccc2[nH]c(CNc3nc(N4CCOCC4)nn4c(Br)cnc34)nc12 [Example 13, 7-bromo-N-[(4-methoxy-1H-benzimidazol-2-yl)methyl]-2-(morpholin-4-yl)imidazo[2,1-f][1,2,4]triazin-4-amine]
IC50 (CDK2/CycE): 5740 nM | IC50 [1]: 27.9 nM | IC50 [2]: 12.3 nM | DC50 (CYCLIN K): 1.57 nM
